pIC50: −log10 of the molar value.
Test system: not given
Experiment: not given
Conditions: not given
With CCOC(=O)c1c(N2CCN(C(=O)c3cccs3)CC2)c2sccc2n(CC(=O)c2ccccc2)c1=O [Compound 7, 5-oxo-4-(2-oxo-2-phenyl-ethyl)-7-[4-(thiophene-2-carbonyl)-piperazin-1-yl]4,5-dihydro-thieno[3,2-b]pyridine-6-carboxylic acid ethyl ester] the melting point was 240 °C. Molecule CCOC(=O)c1c(N2CCN(C(=O)c3cccs3)CC2)c2sccc2n(Cc2cccc(F)c2)c1=O [Compound 9, 4-(3-fluoro-benzyl)-5-oxo-7-[4-(thiophene-2-carbonyl)-piperazin-1-yl]-4,5-dihydro-thieno[3,2-b]pyridine-6-carboxylic acid ethyl ester] has a melting point of 95 to 113 °C. CCOC(=O)c1c(N2CCN(C(=O)c3ccco3)CC2)c2sccc2n(CC(=O)c2ccccc2)c1=O [Compound 13, 7-[4-(furan-2-carbonyl)-piperazin-1-yl]-5-oxo-4-(2-oxo-2-phenyl-ethyl)-4,5-dihydro-thieno[3,2-b]pyridine-6-carboxylic acid ethyl ester] gave a melting point of 246 °C. N#Cc1c(N2CCN(C(=O)c3cccs3)CC2)c2sccc2n(Cc2ccc(F)cc2)c1=O [Compound 28, 4-(4-fluoro-benzyl)-5-oxo-7-[4-(thiophene-2-carbonyl)-piperazin-1-yl]-4,5-dihydro-thieno[3,2-b]pyridine-6-carbonitrile] showed a melting point of 286 °C. With N#Cc1c(N2CCN(C(=O)c3cccs3)CC2)c2sccc2n(CC(=O)c2ccccc2)c1=O [Compound 30, 5-oxo-4-(2-oxo-2-phenyl-ethyl)-7-[4-(thiophene-2-carbonyl)-piperazin-1-yl]-4,5-dihydro-thieno[3,2-b]pyridine-6-carbonitrile] the melting point was 300 °C. With CCOC(=O)c1c(N2CCN(C(=O)c3cccs3)CC2)c2cscc2n(Cc2ccc(F)cc2)c1=O [Compound 42, 4-(4-fluoro-benzyl)-5-oxo-7-[4-(thiophene-2-carbonyl)-piperazin-1-yl]-4,5-dihydro-2-thia-4-aza-indene-6-carboxylic acid ethyl ester] the melting point was 227 °C. With N#Cc1c(N2CCN(C(=O)c3cccs3)CC2)c2cscc2n(CC(=O)c2ccccc2)c1=O [Compound 48, 5-oxo-4-(2-oxo-2-phenyl-ethyl)-7-[4-(thiophene-2-carbonyl)-piperazin-1-yl]-4,5-dihydro-2-thia-4-aza-indene-6-carbonitrile] the melting point was 308 °C. In the case of N#Cc1c(N2CCN(C(=O)c3cccs3)CC2)c2cscc2n(Cc2ccc(F)cc2)c1=O [Compound 49, 4-(4-fluoro-benzyl)-5-oxo-7-[4-(thiophene-2-carbonyl)-piperazin-1-yl]-4,5-dihydro-2-thia-4-aza-indene-6-carbonitrile], the melting point was 238 °C. In the case of COC(=O)c1ccc(Cn2c(=O)c(C#N)c(N3CCN(C(=O)c4cccs4)CC3)c3cscc32)cc1 [Compound 50, 4-{6-cyano-5-oxo-7-[4-(thiophene-2-carbonyl)-piperazin-1-yl]-5H-2-thia-4-aza-indene-4-ylmethyl}-benzoic acid methyl ester], the melting point was 263 °C. For N#Cc1c(N2CCN(C(=O)c3cccs3)CC2)c2cscc2n(-c2cccnc2)c1=O [Compound 52, 5-oxo-4-pyridine-3-yl-7-[4-(thiophene-2-carbonyl)-piperazin-1-yl]-4,5-dihydro-2-thia-4-aza-indene-6-carbonitrile], the melting point was 282 °C. With Cc1csc2c1c(N1CCN(C(=O)c3cccs3)CC1)c(C#N)c(=O)n2Cc1ccccc1 [Compound 67, 7-benzyl-3-methyl-6-oxo-4-[4-(thiophene-2-carbonyl)-piperazin-1-yl]-6,7-dihydro-thieno[2,3-b]pyridine-5-carbonitrile] the melting point was 223 °C.

Target: T1, MIF produced by THP-1 cells (Homo sapiens, UniProt P14174)
T1 construct: THP-1 cell supernatant was collected and incubated with a candidate compound; endogenous in cells; host or cells: THP-1 cells, LPS-stimulated, culture supernatant
T1 sequence (P14174 2-115 limits assumed): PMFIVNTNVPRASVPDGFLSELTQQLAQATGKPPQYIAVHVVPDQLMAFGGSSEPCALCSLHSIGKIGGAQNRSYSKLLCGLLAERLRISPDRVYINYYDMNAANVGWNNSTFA
Experiment: Antibody binding assay of MIF inhibitors (ELISA, 96-well format)
Conditions: LPS-stimulated THP-1 cell supernatant incubated with compound; MIF monoclonal antibody capture ELISA; read-out: In vitro MIF IC50
Procedure: An antibody binding assay for MIF inhibitors was performed on selected compounds in a 96-well format using MIF produced by THP-1 cells. The THP-1 cells were washed once with 250 μl of 0.1 M sodium carbonate, pH 11.4, for 1 to 2 minutes and immediately aspirated. The THP-1 cells were then washed with media containing 0.5% FBS plus 25 μg/ml heparin and then incubated in this same medium for the indicated lengths of time. The THP-1 cells were resuspended to approx. 5×10^6 cells/ml in RPMI medium containing 20 μg/ml of bacterial LPS and incubated for 18-20 hours, after which THP-1 cell supernatant was collected and incubated with a candidate compound. A 96-well ELISA plate (Costar Number 3590) was coated with a MIF monoclonal antibody (R&D Systems Catalog Number MAB289) at a concentration of 4 μg/ml for two hours at 37° C. Undiluted THP-1 cell culture supernatant incubated with the candidate compound was added to the ELISA plate for a two-hour incubation at room temperature. The wells were then washed, a biotinylated MIF polyclonal antibody (R&D Systems #AF-289-PB) was added followed by Streptavidin-HRP and a chromogenic substrate. The amount of MIF was calculated by interpolation from an MIF standard curve.
Molecule N#Cc1c(N2CCN(C(=O)c3cccs3)CC2)c2cscc2n(CC(=O)c2ccccc2)c1=O [Compound 101] has a pIC50 of 7.15. With N#Cc1c(N2CCN(C(=O)c3cccs3)CC2)c2cscc2n(Cc2ccc(F)cc2)c1=O [Compound 102] the pIC50 was 7.09. For COC(=O)c1ccc(Cn2c(=O)c(C#N)c(N3CCN(C(=O)c4cccs4)CC3)c3cscc32)cc1 [Compound 103], the pIC50 was 6.36. Molecule N#Cc1c(N2CCN(C(=O)c3cccs3)CC2)c2cscc2n(Cc2cccnc2)c1=O [Compound 104] has a pIC50 of 7.23. Molecule CCOC(=O)c1c(N2CCN(C(=O)c3cccs3)CC2)c2cscc2n(CC(=O)c2ccccc2)c1=O [Compound 105] has a pIC50 of 7.28. CCOC(=O)c1c(N2CCN(C(=O)c3cccs3)CC2)c2cscc2n(Cc2ccc(F)cc2)c1=O [Compound 106] gave a pIC50 of 7.40. Work on CCOC(=O)c1c(N2CCN(C(=O)c3cccs3)CC2)c2cscc2n(Cc2ccc(C(=O)OC)cc2)c1=O [Compound 107] yielded a pIC50 of 7.46. Molecule N#Cc1c(N2CCN(C(=O)c3cccs3)CC2)c2cscc2n(-c2cccnc2)c1=O [Compound 108] has a pIC50 of 6.77. Work on CCOC(=O)c1c(N2CCN(C(=O)c3cccs3)CC2)c2sccc2n(Cc2ccc(F)cc2)c1=O [Compound 109] yielded a pIC50 of 6.63. For N#Cc1c(N2CCN(C(=O)c3cccs3)CC2)c2sccc2n(CC(=O)c2ccccc2)c1=O [Compound 110], the pIC50 was 5.76. In the case of N#Cc1c(N2CCN(C(=O)c3cccs3)CC2)c2sccc2n(Cc2cccnc2)c1=O [Compound 111], the pIC50 was 6.60. N#Cc1c(N2CCN(C(=O)c3cccs3)CC2)c2sccc2n(Cc2cccc(F)c2)c1=O [Compound 112] gave a pIC50 of 6.23. Molecule N#Cc1c(N2CCN(C(=O)c3cccs3)CC2)c2sccc2n(Cc2ccc(F)cc2)c1=O [Compound 113] has a pIC50 of 6.38. CCOC(=O)c1c(N2CCN(C(=O)c3cccs3)CC2)c2ccsc2n(Cc2ccccc2)c1=O [Compound 114] showed a pIC50 of 7.15. With CCOC(=O)c1c(N2CCN(C(=O)c3cccs3)CC2)c2c(C)csc2n(Cc2ccccc2)c1=O [Compound 115] the pIC50 was 4.93. N#Cc1c(N2CCN(C(=O)c3cccs3)CC2)c2ccsc2n(Cc2ccccc2)c1=O [Compound 116] showed a pIC50 of 6.86. In the case of Cc1csc2c1c(N1CCN(C(=O)c3cccs3)CC1)c(C#N)c(=O)n2Cc1ccccc1 [Compound 117], the pIC50 was 4.91. Work on CCOC(=O)c1c(N2CCN(C(=O)c3ccco3)CC2)c2sccc2n(Cc2ccc(F)cc2)c1=O [Compound 119] yielded a pIC50 of 5.38. For CCOC(=O)c1c(N2CCN(C(=O)c3cccs3)CC2)c2sccc2n(CC(=O)c2ccccc2)c1=O [Compound 120], the pIC50 was 6.10. In the case of CCOC(=O)c1c(N2CCN(C(=O)c3cccs3)CC2)c2sccc2n(Cc2cccc(F)c2)c1=O [Compound 121], the pIC50 was 6.84. With CCOC(=O)c1c(N2CCN(C(=O)c3ccco3)CC2)c2sccc2n(Cc2cccc(F)c2)c1=O [Compound 122] the pIC50 was 5.23. For CCOC(=O)c1c(N2CCN(C(=O)c3ccco3)CC2)c2sccc2n(CC(=O)c2ccccc2)c1=O [Compound 123], the pIC50 was 5.06. With CCOC(=O)c1c(N2CCN(C(=O)c3cccs3)CC2)c2sccc2n(Cc2cccnc2)c1=O [Compound 124] the pIC50 was 6.57. Molecule CC(C)OC(=O)c1c(N2CCN(C(=O)c3cccs3)CC2)c2sccc2n(Cc2cccc(F)c2)c1=O [Compound 125] has a pIC50 of 6.41. CCOC(=O)c1c(N2CCN(C(=O)c3ccc(F)s3)CC2)c2sccc2n(Cc2cccc(F)c2)c1=O [Compound 126] gave a pIC50 of 6.19. With CCOC(=O)c1c(N2CCN(C(=O)c3cccs3)CC2)c2cc(C)sc2n(Cc2cccc(F)c2)c1=O [Compound 127] the pIC50 was 7.49.
